Among the data in patent publication US4025626A, “7-Acyl-3-(ureidoalkyl substituted tetrazolylthiomethyl)-cephalosporins” (SmithKline Corporation, priority 1975, dated 1977) are ED50 and MIC values, retold here.

In brackets after ≈: the same amount, converted by molar mass. Where two headings read alike, the source gives them in different places.

The test system of assay [1] is Kleb. pneumo. 4200. The experiment in a line: in vivo mouse protection test. As to the method:
(§1) 4200 upon subcutaneous injection; and 17.5 mg./kg. against E. coli 12140 and 25.5 mg./kg. against Kleb. pneumo. 4200 upon oral administration.

The test system of assay [2] is E. coli 12140. Briefly: in vivo mouse protection test. The settings on record: Escherichia coli. As to the method: as §1
Assay [3] concerns Pseudo. aerug. HH 63. The experiment in a line: in vitro MIC testing. It is filed as cell-based. Particulars: two values given. As to the method:
(§2) The compounds of Formula I have exceptional antibacterial activity against both Gram-positive and Gram-negative organisms. Minimum inhibitory concentrations (MIC's) range from 0.1 to >200 μg./ml. in in vitro testing. Test results for the compound 7-D-mandelamido-3-[1-(2-ureidoethyl)tetrazol-5-ylthiomethyl]-3-cephem-4-carboxylic acid are given below: […]

In assay [4] the test system is Kleb. pneumo. SK 4200. The experiment in a line: in vitro MIC testing. The settings on record: two values given. The class given is cell-based. As to the method: as §2
Assay [5] has as its system S. aureus SK 23390. Briefly: in vitro MIC testing. The class given is cell-based. Particulars: Staphylococcus aureus, SK23390, two values given. As to the method: as §2
Assay [6] has as its system S. villaluz SK 70390. Briefly: in vitro MIC testing. The settings on record: two values given. The class given is cell-based. As to the method: as §2
Assay [7] concerns Kleb. pneumo. SK 1200. The experiment in a line: in vitro MIC testing. It is filed as cell-based. Particulars: two values given. As to the method: as §2
Assay [8] deals with S. aureus HH 127. The experiment in a line: in vitro MIC testing. It is filed as cell-based. The settings on record: two values given. As to the method: as §2
Assay [9] deals with E. coli SK 12140. Briefly: in vitro MIC testing. It is filed as cell-based. Particulars: Escherichia coli, SK12140, two values given. As to the method:
as §2

Assay [10] has as its system Serratia Marc. ATCC 13880. Briefly: in vitro MIC testing. The class given is cell-based. The settings on record: ATCC13880, two values given. As to the method: as §2
Assay [11] deals with Strep. faecalis HH 34358. The experiment in a line: in vitro MIC testing. The class given is cell-based. The settings on record: Enterococcus faecalis, HH34358, two values given. As to the method: as §2
The test system of assay [12] is Entero. cloacae HH 31254. Briefly: in vitro MIC testing. The class given is cell-based. The settings on record: Enterobacter cloacae, HH31254, two values given. As to the method: as §2
Assay [13] deals with E. coli HH 33779. The experiment in a line: in vitro MIC testing. It is filed as cell-based. The settings on record: Escherichia coli, HH33779, two values given. As to the method: as §2
In assay [14] the test system is Shigella HH 117. Briefly: in vitro MIC testing. It is filed as cell-based. The settings on record: two values given. As to the method:
as §2

Assay [15] relates to Proteus morgani 179. Briefly: in vitro MIC testing. The settings on record: two values given. The class given is cell-based. As to the method: as §2

One may read the ED50 as the midpoint of the dose-response relation. Usually MIC stands for the lowest concentration found to suppress growth. As for `NC(=O)NCCn1nnnc1SCC1=C(C(=O)O)N2C(=O)C(NC(=O)[C@H](O)c3ccccc3)[C@H]2SC1` (stereo partly drawn) [7-D-Mandelamido-3-[1-(2-ureidoethyl)tetrazol-5-ylthiomethyl]-3-cephem-4-carboxylic acid], the median effective dose (ED50) is 25.5 mg/kg in [1] (Kleb. pneumo. 4200, oral administration); 1.34 mg/kg in assay [1] (sc, Kleb. pneumo. 4200, subcutaneous injection); 17.5 mg/kg in [2] (E. coli 12140, oral administration); 0.86 mg/kg in assay [2] (sc, E. coli 12140, subcutaneous injection). Further, the minimal inhibitory concentration (MIC) in assay [3] is more than 200 µg/mL; in assay [4], 0.8 µg/mL (≈ 1.5 µM); in assay [5] it was 0.4 µg/mL (≈ 0.748 µM); in assay [6], 25 µg/mL (≈ 46.8 µM); in assay [7] it was 0.4 µg/mL (≈ 0.748 µM); in [8] (S. aureus HH 127), 1.6 µg/mL (≈ 2.99 µM). Moreover, the minimal inhibitory concentration (MIC) is 3.1 µg/mL (≈ 5.8 µM) in [8] (Staphylococcus aureus, HH127, S. aureus HH 127, read-out: MIC); 0.8 µg/mL (≈ 1.5 µM) in [9]; 25 µg/mL (≈ 46.8 µM) in [10]; 25 µg/mL (≈ 46.8 µM) in [11]; 0.8 µg/mL (≈ 1.5 µM) in assay [12]; 1.6 µg/mL (≈ 2.99 µM) in assay [13]. Also, the minimal inhibitory concentration (MIC) in assay [14] (Shigella HH 117) was 0.2 µg/mL (≈ 0.374 µM); in assay [14] (Shigella, HH117, Shigella HH 117, read-out: MIC), 0.1 µg/mL (≈ 0.187 µM); in [15] it was 0.8 µg/mL (≈ 1.5 µM).
